Patent US20250230138A1, “COMPOUNDS HAVING A T-STRUCTURE FORMED BY AT LEAST FOUR CYCLES FOR USE IN THE TREATMENT OF CANCER AND OTHER INDICATIONS” (TheRas, Inc., priority 2022, published 2025)
Where two headings read alike, the source gives them in different places.

Columns and labels:
[1] = target: Cys242 in human PIK3CA (157-299) (Homo sapiens (Human), UniProt P42336); assay: Covalent modification assay using MALDI-TOF MS; type: biochemical; details: 4 h reaction time point; 3.33 μM protein target, 1:7.5 protein to compound ratio (compounds 1-852)
Chain of Cys242 in human PIK3CA (157-299) (P42336 157-299): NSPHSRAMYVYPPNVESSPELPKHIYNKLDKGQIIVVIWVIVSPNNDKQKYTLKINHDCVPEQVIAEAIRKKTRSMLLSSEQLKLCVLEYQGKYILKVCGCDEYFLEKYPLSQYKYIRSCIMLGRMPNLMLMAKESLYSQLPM
Summary of the method: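 PIK3CA (157-299), 3.33 or 1 μM in 20 mM HEPES, 150 mM NaCl, 2 mM MgCl2, pH 7.3, was incubated with compound at room temperature in the dark for 15 min, 30 min, 2 h or 4 h. Linear MALDI-TOF read-out; % modification = adduct peak height over summed heights of all protein species.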

pAKT in BT474 cells = assay: Cell-based pAKT HTRF assay in BT474 cells
Summary of the method: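 The HTRF signal (excitation 320 nm, emission 615 nm) came from d2/Eu Cryptate antibodies added to lysates and incubated 4–24 h at room temperature. Those lysates were taken from cells treated for 4 hr with compound, top concentration 3 μM, in 0.25% DMSO.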

[2] = target: KRAS-PI3Kα interaction (KRAS-Q25A binding to avi-tagged full length PI3Kα) (Homo sapiens (Human), UniProt P42336); assay: Disrupting KRAS-PI3Kα interaction by SPR inhibition assay; details: KRAS-Q25A at 20 μM, 25° C.
Chain of KRAS-PI3Kα interaction (KRAS-Q25A binding to avi-tagged full length PI3Kα) (P42336 whole entry, looked up, stated change not applied): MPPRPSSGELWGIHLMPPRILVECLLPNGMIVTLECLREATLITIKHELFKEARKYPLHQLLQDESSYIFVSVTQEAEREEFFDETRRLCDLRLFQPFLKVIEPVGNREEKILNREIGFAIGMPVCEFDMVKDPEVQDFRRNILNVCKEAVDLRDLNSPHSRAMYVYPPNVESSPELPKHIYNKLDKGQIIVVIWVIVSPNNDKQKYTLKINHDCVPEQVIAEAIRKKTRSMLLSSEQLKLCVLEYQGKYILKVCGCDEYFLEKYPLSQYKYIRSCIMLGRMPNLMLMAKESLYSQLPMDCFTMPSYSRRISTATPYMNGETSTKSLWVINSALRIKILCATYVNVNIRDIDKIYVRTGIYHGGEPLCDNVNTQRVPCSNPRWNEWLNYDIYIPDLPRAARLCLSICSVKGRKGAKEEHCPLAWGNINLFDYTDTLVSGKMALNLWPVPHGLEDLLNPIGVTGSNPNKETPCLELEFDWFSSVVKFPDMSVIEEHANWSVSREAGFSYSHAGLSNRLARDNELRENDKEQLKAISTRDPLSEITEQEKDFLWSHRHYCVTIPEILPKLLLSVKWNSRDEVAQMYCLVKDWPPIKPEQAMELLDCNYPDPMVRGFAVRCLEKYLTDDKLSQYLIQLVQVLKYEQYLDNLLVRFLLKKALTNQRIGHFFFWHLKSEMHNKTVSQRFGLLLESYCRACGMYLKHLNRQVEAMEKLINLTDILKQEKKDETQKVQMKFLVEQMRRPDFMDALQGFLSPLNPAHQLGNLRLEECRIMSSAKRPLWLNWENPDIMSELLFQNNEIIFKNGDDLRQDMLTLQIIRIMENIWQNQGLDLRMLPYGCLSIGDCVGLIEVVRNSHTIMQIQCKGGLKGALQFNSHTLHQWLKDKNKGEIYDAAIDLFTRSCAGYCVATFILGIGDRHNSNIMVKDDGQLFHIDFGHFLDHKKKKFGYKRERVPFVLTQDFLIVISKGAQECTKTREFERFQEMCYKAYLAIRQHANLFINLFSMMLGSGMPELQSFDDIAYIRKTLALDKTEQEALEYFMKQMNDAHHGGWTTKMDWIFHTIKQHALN
Chain of KRAS-PI3Kα interaction (KRAS-Q25A binding to avi-tagged full length PI3Kα) (P27986 whole entry partner, looked up): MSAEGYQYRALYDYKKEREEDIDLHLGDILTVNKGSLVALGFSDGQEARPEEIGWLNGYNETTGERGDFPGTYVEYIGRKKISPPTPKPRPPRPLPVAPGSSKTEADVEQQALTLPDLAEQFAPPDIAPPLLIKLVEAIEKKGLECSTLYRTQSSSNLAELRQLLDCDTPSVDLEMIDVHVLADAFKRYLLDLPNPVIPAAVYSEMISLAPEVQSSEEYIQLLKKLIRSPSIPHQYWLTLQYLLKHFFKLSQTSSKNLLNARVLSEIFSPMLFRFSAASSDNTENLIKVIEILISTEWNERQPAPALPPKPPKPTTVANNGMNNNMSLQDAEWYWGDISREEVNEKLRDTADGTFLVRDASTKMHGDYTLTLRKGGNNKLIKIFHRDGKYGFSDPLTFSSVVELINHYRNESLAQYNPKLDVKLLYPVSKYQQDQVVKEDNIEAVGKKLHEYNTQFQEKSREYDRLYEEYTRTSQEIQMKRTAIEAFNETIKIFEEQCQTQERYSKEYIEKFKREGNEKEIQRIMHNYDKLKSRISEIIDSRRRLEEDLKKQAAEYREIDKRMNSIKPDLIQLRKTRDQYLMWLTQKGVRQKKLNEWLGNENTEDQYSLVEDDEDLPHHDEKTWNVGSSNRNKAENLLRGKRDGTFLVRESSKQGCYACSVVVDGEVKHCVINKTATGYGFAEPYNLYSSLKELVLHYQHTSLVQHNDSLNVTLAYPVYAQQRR
Method: SPR binding experiments were collected on a Biacore 8K Instrument (Cytiva). Neutravidin (Pierce) was amine coupled to the carboxymethylated dextran surface of a CM5 sensor chip (Cytiva) using standard amine coupling chemistry. The CM5 chip surface was first activated with 0.1 M N-hydroxy succinimide and 0.4 M N-ethyl-N′-(3-dimethyl aminopropyl) carbodiimide at a flow rate of 20 μL/min using 20 mM HEPES pH 7.4, 150 mM NaCl as the running buffer. Next, neutravidin was diluted to 20 μg/mL in 10 mM sodium acetate (pH 4.5) and injected on all flow cells until a density of approximately 10,000 response units (RU) was immobilized. Activated amine groups were quenched with an injection of 1 M ethanolamine (pH 8.0). 300-500 RU of avi-tagged full length PI3Kα was captured on all flow cells in 20 mM HEPES pH 7.4, 150 mM NaCl, 5 mM MgCl2, 1 mM TCEP, 0.05% tween 20, 5% DMSO buffer. KRAS-Q25A at 20 μM was mixed with 8 concentrations of compound (50 nM-100 μM) and injected over the full-length PI3Kα at 30 μL/min and 25° C. Steady-state levels of KRAS binding were recorded and fit with a 4-parameter inhibition model to determine the IC50 values.

[3] = Homo sapiens, BT-474, BT474 cells, 4 hr incubation, Compounds 10-999, read-out: pAKT inhibition IC50 in BT474 cells
[4] = BT474 cells, 4 hr incubation, Compounds 10-999, read-out: pAKT inhibition IC50 in BT474 cells

SMILES	% of modification [1]	IC50 (pAKT in BT474 cells; [3])	IC50 [2]	IC50 (pAKT in BT474 cells; Homo sapiens, BT-474, BT474, free fraction adjusted, read-out: in vitro BT474 pAKT free fraction adjusted IC50)	IC50 (pAKT in BT474 cells; Homo sapiens, BT-474, BT474 cell line, read-out: pAKT (IC50))	IC50 (pAKT in BT474 cells; [4])
C=CC(=O)Nc1cccc(-c2nc(-c3ccc4c(c3)CCNC4)c3ccsc3c2-c2ccc(F)cc2OCCOC)c1 [Compound 12, N-[3-[7-[4-fluoro-2-(2-methoxyethoxy)phenyl]-4-(1,2,3,4-tetrahydroisoquinolin-6-yl)thieno[3,2-c]pyridin-6-yl]phenyl]prop-2-enamide]	A (percent of modification of PIK3CA protein ≥75%)	100 to 1000 nM	< 5000 nM			
C=CC(=O)N1CC(n2cc(-c3nc(-c4ccc5c(c4)CCNC5)c4ccsc4c3-c3ccc(F)cc3OCCOC)cn2)C1 [Compound 44, 1-[3-[4-[7-[4-fluoro-2-(2-methoxyethoxy)phenyl]-4-(1,2,3,4-tetrahydroisoquinolin-6-yl)thieno[3,2-c]pyridin-6-yl]pyrazol-1-yl]azetidin-1-yl]prop-2-en-1-one]	A (percent of modification of PIK3CA protein ≥75%)	< 100 nM	5000 to 25000 nM			
C=CC(=O)N1CCc2nc(-c3nc(-c4ccc5c(c4)CCNC5)c4ccsc4c3-c3ccc(F)cc3OCCOC)sc2C1 [Compound 58, 1-[2-[7-[4-fluoro-2-(2-methoxyethoxy)phenyl]-4-(1,2,3,4-tetrahydroisoquinolin-6-yl)thieno[3,2-c]pyridin-6-yl]-6,7-dihydro-4H-thiazolo[5,4-c]pyridin-5-yl]prop-2-en-1-one]	A (percent of modification of PIK3CA protein ≥75%)	< 100 nM	5000 to 25000 nM	1440 nM	34 nM	
C=CC(=O)N1CCCC(n2cc(-c3nc(-c4ccc5c(c4)CCNC5)c4ccsc4c3-c3ccc(F)cc3OCCOC)cn2)C1 (centres unmarked) [compound 31]	A (percent of modification of PIK3CA protein ≥75%)		< 5000 nM			< 100 nM
C=CC(=O)N1CCc2ccc(-c3nc(-c4ccc5c(c4)CCNC5)c4ccsc4c3-c3ccc(F)cc3OCCOC)cc2C1 [compound 42]	A (percent of modification of PIK3CA protein ≥75%)		< 5000 nM			< 100 nM
C=CC(=O)N1CC[C@H](n2cc(-c3nc(-c4ccc5c(c4)CCNC5)c4ccsc4c3-c3ccc(F)cc3OCCOC)cn2)C1 [compound 47]	A (percent of modification of PIK3CA protein ≥75%)		5000 to 25000 nM			< 100 nM
C=CC(=O)Nc1cccc(-c2nc(-c3ccc4c(c3)CNC(=O)C4)c3ccsc3c2-c2ccc(F)cc2OCCOC)c1 [compound 51]	A (percent of modification of PIK3CA protein ≥75%)		5000 to 25000 nM			100 to 1000 nM
